Legend:
[1] = Acute toxicity in mice after intraperitoneal administration (LD50, 24 hours); assay type: in vivo; details: mouse, in vivo, ip; mice, intraperitoneal, death of one-half after 24 hours
Protocol: (§1) The following Table I sets forth the comparative results of the effectiveness of the parent antibiotic, daunorubicin, in the inhibition of the growth of the cancerous cells of murine leukemia P-388 in mice versus the anticancer activity of enamine derivatives of daunorubicin according to the present invention. ED50 denotes the concentration of the compound being tested leading to 50 percent inhibition of cancerous cell growth at 48 hours incubation time of the compound being tested. LD50 indicates the dosage of the tested compounds which cause death after 24 hours of one-half of the number of mice which have been intraperitonically administered the subject compound. T/C in percent represents the ratio of mean survival time of the group of treated mice versus the group of untreated mice.

[2] = system: cardiac muscle of rats; details: i.p., three dosage levels (0.2, 10, 20 mg/kg), H+E, light and polarizing microscopes; cited from earlier work
[3] = system: murine leukemia P-388; test: Anticancer activity in mice with leukemia P-388, survival time (T/C); assay type: in vivo; details: for T/C (second value, in parentheses): not explained
Protocol: as §1

[4] = system: cardiac muscle of rats; test: Examination of the cardiac muscle of rats after intraperitoneal administration (cardiotoxicity); assay type: in vivo; details: i.p., 0.2, 10 and 20 mg/kg, versus daunorubicin
Description: Preparations from cardiac muscle tinted with H+E have been examined under light and polarizing microscopes.

[5] = system: mice; test: Acute toxicity in mice after intraperitoneal administration (LD50, 24 hours); assay type: in vivo; details: daunorubicin versus the inventive derivatives
Protocol: as §1

| SMILES | LD50 at 24 h [1] | subsegmentary contractions / disturbances in heart rhythm [2] | T/C ([3]; Dose (mg/kg) 3 130) | T/C ([3]; Dose (mg/kg) 6 250) | T/C ([3]; Dose (mg/kg) 12 500) | T/C ([3]; Dose (mg/kg) 25 000) | T/C (second value, in parentheses) ([3]; Dose (mg/kg) 25 000) | T/C ([3]; Dose (mg/kg) 50 000) | T/C (second value, in parentheses) ([3]; Dose (mg/kg) 50 000) | T/C ([3]; Dose (mg/kg) 100 000) | T/C ([3]; Dose (mg/kg) 200 000) | morphological and ultrastructural changes to muscular tissue [4] | dosage level of toxic effects [5] |
| --- | --- | --- | --- | --- | --- | --- | --- | --- | --- | --- | --- | --- | --- |
| CCOC(=O)C=C(C)N[C@H]1C[C@H](O[C@H]2C[C@](O)(C(C)=O)Cc3c(O)c4c(c(O)c32)C(=O)c2c(OC)cccc2C4=O)O[C@@H](C)[C@H]1O [N-(1-carboethoxy-propen-1-yl-2)-daunorubicin] | 500 mg/kg | does not cause said disturbances, the cardiac muscle evidencing a regular and alternating system of isotropic and anizotropic fringes | 94% | 103% | 103% | 115% | 119% | 132% | 128% | 144% | 102% | considerably less morphological and ultrastructural changes to muscular tissue than does the initial daunorubicin | – |
| COc1cccc2c1C(=O)c1c(O)c3c(c(O)c1C2=O)C[C@@](O)(C(C)=O)C[C@@H]3O[C@H]1C[C@H](NC(C)=CC(C)=O)[C@H](O)[C@H](C)O1 [N--(penten-2-on-4 yl-2)-daunorubicin, N-(penten-2-on-4-yl-2) daunorubicin] | 500 mg/kg | – | 131% | 110% | 119% | 125% | 131% | 118% | 144% | 147% | toxic | – | – |
| COc1cccc2c1C(=O)c1c(O)c3c(c(O)c1C2=O)C[C@@](O)(C(C)=O)C[C@@H]3O[C@H]1C[C@H](N)[C@H](O)[C@H](C)O1 [Daunorubicin, daunorubicin] | 135 mg/kg | leads to the formation of numerous subsegmentary contractions causing, in effect, disturbances in heart rhythm | 108% | 112% | 112% | 127% | – | 102% | – | – | – | – | occur at a far lower dosage level as opposed to the inventive derivatives |

— patent US4824944A, “Antineoplastic enamine derivatives of daunorubicin and adriamycin” (Politechnika Gdanska, priority 1987, dated 1989)
